Test results from patent US20260250318A1, “COMPOSITIONS AND METHODS FOR CROSSING THE BLOOD BRAIN BARRIER” (VOYAGER THERAPEUTICS, INC., priority 2022, published 2026).

Assays:
[1] = test system: brains, heart, liver, muscle, and DRG of the NHPs; experiment: Maturation of TTM-001 and TTM-002 capsids, NGS enrichment in NHP tissues; format: in vivo; settings: relative to AAV9 control
Procedure, shortened: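 Variants carry mutations within and flanking the loop IV peptide insert: positions 450–466 were triplet-randomized, while positions 449–466 received low-frequency point mutations. The combined pool went into two NHPs, and each peptide was scored by NGS enrichment ratio against AAV9.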

brain = experiment: Matured TTM-001 and TTM-002 variants, NGS enrichment in mouse brain; format: in vivo, mice; settings: relative to AAV9 control
[2] = NGS fold-enrichment, DRG of NHPs
[3] = NGS fold-enrichment, RNA, brain of NHPs
[4] = NGS fold-enrichment, heart of NHPs
[5] = NGS fold-enrichment, liver DNA of NHPs
[6] = NGS fold-enrichment, liver RNA of NHPs
[7] = NGS fold-enrichment, muscle of NHPs
[8] = NGS fold-enrichment, brain of mice
[9] = NGS fold-enrichment of matured AAV capsid variants, NHP brain, RNA
[10] = NGS fold-enrichment of RNA, NHP brain
[11] = NGS fold-enrichment, NHP liver DNA
[12] = NGS fold-enrichment, NHP liver RNA
[13] = NGS fold-enrichment, NHP muscle
[14] = NGS fold-enrichment, mouse brain

Sequence | Fold Enrichment relative to AAV9, Brain (NHP) [1, 10] | Fold Enrichment relative to AAV9, DRG (NHP) ([1]; NGS fold-enrichment, NHP DRG) | Fold Enrichment relative to AAV9, Heart (NHP) ([1]; NGS fold-enrichment, NHP heart) | Fold Enrichment relative to AAV9, Liver DNA (NHP) [1, 11] | Fold Enrichment relative to AAV9, Liver RNA (NHP) [1, 12] | Fold Enrichment relative to AAV9, Muscle (NHP) [1, 13] | Fold Enrichment relative to AAV9, Brain (Mouse) (brain; [14]) | further results
KTVNGGGSPHSKAQSQQT | – | – | – | – | – | – | – | Fold Enrichment relative to AAV9, DRG (NHP) [1, 2]: 0.000 fold; Fold Enrichment relative to AAV9, Brain (NHP) [1, 3]: 67.634 fold; Fold Enrichment relative to AAV9, Heart (NHP) [1, 4]: 0.055 fold; Fold Enrichment relative to AAV9, Liver DNA (NHP) [1, 5]: 0.210 fold; Fold Enrichment relative to AAV9, Liver RNA (NHP) [1, 6]: 0.000 fold; Fold Enrichment relative to AAV9, Muscle (NHP) [1, 7]: 0.000 fold; Fold Enrichment relative to AAV9, Brain (Mouse) (brain; [8]): 160.711 fold
KTVNGGGSPHSKSQNQQT | – | – | – | – | – | – | – | Fold Enrichment relative to AAV9, Brain (NHP) [1, 9]: 56.114 fold; Fold Enrichment relative to AAV9, DRG (NHP) ([1]; NHP DRG): 0.116 fold; Fold Enrichment relative to AAV9, Heart (NHP) ([1]; NHP heart): 0.000 fold; Fold Enrichment relative to AAV9, Liver DNA (NHP) ([1]; NHP liver, DNA): 0.040 fold; Fold Enrichment relative to AAV9, Liver RNA (NHP) ([1]; NHP liver, RNA): 0.000 fold; Fold Enrichment relative to AAV9, Muscle (NHP) ([1]; NHP muscle): 0.000 fold; Fold Enrichment relative to AAV9, Brain (Mouse) (brain; mouse brain): 170.548 fold
KTVNGHDSPHKIGHNQQT | 120.985 fold | 0.000 fold | 0.029 fold | 0.009 fold | 0.000 fold | 0.000 fold | 10.167 fold | –
KTVNGHDSPHKSGHTQQT | 82.246 fold | 0.000 fold | 0.378 fold | 0.123 fold | 0.000 fold | 1.142 fold | 6.160 fold | –
KTVNGHDSPHKSGQNHLT | 81.516 fold | 0.000 fold | 0.100 fold | 0.028 fold | 0.000 fold | 0.017 fold | 16.096 fold | –
KTVNGHDSPHKSGQNLHT | 88.080 fold | 0.000 fold | 0.080 fold | 0.039 fold | 0.000 fold | 0.000 fold | 11.363 fold | –
KTVNGHDSPHKSGQNLLT | 83.969 fold | 0.114 fold | 0.040 fold | 0.035 fold | 0.000 fold | 0.023 fold | 18.894 fold | –
KTVNGHDSPHKSGQTRQT | 133.276 fold | 0.251 fold | 0.080 fold | 0.129 fold | 0.034 fold | 0.093 fold | 7.174 fold | –
KTVNGHDSPHKSGRNQET | 102.695 fold | 0.000 fold | 0.286 fold | 0.027 fold | 0.000 fold | 0.000 fold | 11.958 fold | –
KTVNGHDSPHKSLQNQQT | 112.925 fold | 0.000 fold | 0.301 fold | 0.322 fold | 0.000 fold | 0.059 fold | 16.726 fold | –
KTVNGHDSPHKSRQSQQT | 76.458 fold | 0.000 fold | 0.063 fold | 0.021 fold | 0.000 fold | 0.000 fold | 8.136 fold | –
KTVNGNGSPHSKAQNHQT | – | – | – | – | – | – | – | Fold Enrichment relative to AAV9, DRG (NHP) [1, 2]: 0.000 fold; Fold Enrichment relative to AAV9, Brain (NHP) [1, 3]: 68.889 fold; Fold Enrichment relative to AAV9, Heart (NHP) [1, 4]: 0.000 fold; Fold Enrichment relative to AAV9, Liver DNA (NHP) [1, 5]: 0.030 fold; Fold Enrichment relative to AAV9, Liver RNA (NHP) [1, 6]: 0.000 fold; Fold Enrichment relative to AAV9, Muscle (NHP) [1, 7]: 0.000 fold; Fold Enrichment relative to AAV9, Brain (Mouse) (brain; [8]): 52.482 fold
KTVNGNGSPHSKAQNKQT | 81.481 fold | 0.000 fold | 0.000 fold | 0.122 fold | 0.000 fold | 0.000 fold | 69.455 fold | Fold Enrichment relative to AAV9, DRG (NHP) [1, 2]: 0.000 fold; Fold Enrichment relative to AAV9, Brain (NHP) [1, 3]: 81.481 fold; Fold Enrichment relative to AAV9, Heart (NHP) [1, 4]: 0.000 fold; Fold Enrichment relative to AAV9, Liver DNA (NHP) [1, 5]: 0.122 fold; Fold Enrichment relative to AAV9, Liver RNA (NHP) [1, 6]: 0.000 fold; Fold Enrichment relative to AAV9, Muscle (NHP) [1, 7]: 0.000 fold; Fold Enrichment relative to AAV9, Brain (Mouse) (brain; [8]): 69.455 fold
KTVNGNGSPHSKAQNQHT | 78.849 fold | 0.000 fold | 0.000 fold | 0.045 fold | 0.000 fold | 0.000 fold | 54.086 fold | Fold Enrichment relative to AAV9, DRG (NHP) [1, 2]: 0.000 fold; Fold Enrichment relative to AAV9, Brain (NHP) [1, 3]: 78.849 fold; Fold Enrichment relative to AAV9, Heart (NHP) [1, 4]: 0.000 fold; Fold Enrichment relative to AAV9, Liver DNA (NHP) [1, 5]: 0.045 fold; Fold Enrichment relative to AAV9, Liver RNA (NHP) [1, 6]: 0.000 fold; Fold Enrichment relative to AAV9, Muscle (NHP) [1, 7]: 0.000 fold; Fold Enrichment relative to AAV9, Brain (Mouse) (brain; [8]): 54.086 fold
KTVNGNGSPHSKSQNQQT | – | – | – | – | – | – | – | Fold Enrichment relative to AAV9, Brain (NHP) [1, 9]: 54.586 fold; Fold Enrichment relative to AAV9, DRG (NHP) ([1]; NHP DRG): 0.000 fold; Fold Enrichment relative to AAV9, Heart (NHP) ([1]; NHP heart): 0.000 fold; Fold Enrichment relative to AAV9, Liver DNA (NHP) ([1]; NHP liver, DNA): 0.168 fold; Fold Enrichment relative to AAV9, Liver RNA (NHP) ([1]; NHP liver, RNA): 0.256 fold; Fold Enrichment relative to AAV9, Muscle (NHP) ([1]; NHP muscle): 0.000 fold; Fold Enrichment relative to AAV9, Brain (Mouse) (brain; mouse brain): 95.384 fold
KTVNGSGSPHSKAPNQHT | 117.207 fold | 0.000 fold | 0.109 fold | 0.074 fold | 0.000 fold | 0.000 fold | 51.008 fold | Fold Enrichment relative to AAV9, DRG (NHP) [1, 2]: 0.000 fold; Fold Enrichment relative to AAV9, Brain (NHP) [1, 3]: 117.207 fold; Fold Enrichment relative to AAV9, Heart (NHP) [1, 4]: 0.109 fold; Fold Enrichment relative to AAV9, Liver DNA (NHP) [1, 5]: 0.074 fold; Fold Enrichment relative to AAV9, Liver RNA (NHP) [1, 6]: 0.000 fold; Fold Enrichment relative to AAV9, Muscle (NHP) [1, 7]: 0.000 fold; Fold Enrichment relative to AAV9, Brain (Mouse) (brain; [8]): 51.008 fold
KTVNGSGSPHSKAPNQQT | – | – | – | – | – | – | – | Fold Enrichment relative to AAV9, Brain (NHP) [1, 9]: 53.444 fold; Fold Enrichment relative to AAV9, DRG (NHP) ([1]; NHP DRG): 0.833 fold; Fold Enrichment relative to AAV9, Heart (NHP) ([1]; NHP heart): 2.206 fold; Fold Enrichment relative to AAV9, Liver DNA (NHP) ([1]; NHP liver, DNA): 0.178 fold; Fold Enrichment relative to AAV9, Liver RNA (NHP) ([1]; NHP liver, RNA): 0.156 fold; Fold Enrichment relative to AAV9, Muscle (NHP) ([1]; NHP muscle): 0.006 fold; Fold Enrichment relative to AAV9, Brain (Mouse) (brain; mouse brain): 58.080 fold
KTVNGSGSPHSKAQDKQT | – | – | – | – | – | – | – | Fold Enrichment relative to AAV9, Brain (NHP) [1, 9]: 51.580 fold; Fold Enrichment relative to AAV9, DRG (NHP) ([1]; NHP DRG): 0.428 fold; Fold Enrichment relative to AAV9, Heart (NHP) ([1]; NHP heart): 0.000 fold; Fold Enrichment relative to AAV9, Liver DNA (NHP) ([1]; NHP liver, DNA): 0.063 fold; Fold Enrichment relative to AAV9, Liver RNA (NHP) ([1]; NHP liver, RNA): 0.041 fold; Fold Enrichment relative to AAV9, Muscle (NHP) ([1]; NHP muscle): 0.069 fold; Fold Enrichment relative to AAV9, Brain (Mouse) (brain; mouse brain): 69.225 fold
KTVNGSGSPHSKAQHLQT | – | – | – | – | – | – | – | Fold Enrichment relative to AAV9, Brain (NHP) [1, 9]: 55.739 fold; Fold Enrichment relative to AAV9, DRG (NHP) ([1]; NHP DRG): 0.091 fold; Fold Enrichment relative to AAV9, Heart (NHP) ([1]; NHP heart): 0.036 fold; Fold Enrichment relative to AAV9, Liver DNA (NHP) ([1]; NHP liver, DNA): 0.409 fold; Fold Enrichment relative to AAV9, Liver RNA (NHP) ([1]; NHP liver, RNA): 0.062 fold; Fold Enrichment relative to AAV9, Muscle (NHP) ([1]; NHP muscle): 0.000 fold; Fold Enrichment relative to AAV9, Brain (Mouse) (brain; mouse brain): 62.743 fold
KTVNGSGSPHSKAQLQQT | – | – | – | – | – | – | – | Fold Enrichment relative to AAV9, Brain (NHP) [1, 9]: 58.681 fold; Fold Enrichment relative to AAV9, DRG (NHP) ([1]; NHP DRG): 0.315 fold; Fold Enrichment relative to AAV9, Heart (NHP) ([1]; NHP heart): 0.465 fold; Fold Enrichment relative to AAV9, Liver DNA (NHP) ([1]; NHP liver, DNA): 0.333 fold; Fold Enrichment relative to AAV9, Liver RNA (NHP) ([1]; NHP liver, RNA): 0.529 fold; Fold Enrichment relative to AAV9, Muscle (NHP) ([1]; NHP muscle): 0.045 fold; Fold Enrichment relative to AAV9, Brain (Mouse) (brain; mouse brain): 81.201 fold
KTVNGSGSPHSKAQNHLT | – | – | – | – | – | – | – | Fold Enrichment relative to AAV9, DRG (NHP) [1, 2]: 0.133 fold; Fold Enrichment relative to AAV9, Brain (NHP) [1, 3]: 59.239 fold; Fold Enrichment relative to AAV9, Heart (NHP) [1, 4]: 0.034 fold; Fold Enrichment relative to AAV9, Liver DNA (NHP) [1, 5]: 0.156 fold; Fold Enrichment relative to AAV9, Liver RNA (NHP) [1, 6]: 0.000 fold; Fold Enrichment relative to AAV9, Muscle (NHP) [1, 7]: 0.000 fold; Fold Enrichment relative to AAV9, Brain (Mouse) (brain; [8]): 70.786 fold
